Source: patent US20230129034A1, “TREATMENT OF DISEASE WITH ESTERS OF SELECTIVE RXR AGONISTS” (Io Therapeutics, Inc., priority 2017, published 2023)
Entries after “also recorded” stand apart in the source; their conditions may differ.

Experiments:
FXR/RXR = target: T1, FXR/RXR (Homo sapiens, UniProt P19793); assay: Permissive heterodimer transactivation assay, CV-1 cells, 3x(IBABP/IRI)-tk-Luc; assay type: cell-based; details: 20 hr, luciferase vs GW4064
T1 construct: expressed in transfected cells; host or cells: CV-1
T1 sequence (P19793 whole entry): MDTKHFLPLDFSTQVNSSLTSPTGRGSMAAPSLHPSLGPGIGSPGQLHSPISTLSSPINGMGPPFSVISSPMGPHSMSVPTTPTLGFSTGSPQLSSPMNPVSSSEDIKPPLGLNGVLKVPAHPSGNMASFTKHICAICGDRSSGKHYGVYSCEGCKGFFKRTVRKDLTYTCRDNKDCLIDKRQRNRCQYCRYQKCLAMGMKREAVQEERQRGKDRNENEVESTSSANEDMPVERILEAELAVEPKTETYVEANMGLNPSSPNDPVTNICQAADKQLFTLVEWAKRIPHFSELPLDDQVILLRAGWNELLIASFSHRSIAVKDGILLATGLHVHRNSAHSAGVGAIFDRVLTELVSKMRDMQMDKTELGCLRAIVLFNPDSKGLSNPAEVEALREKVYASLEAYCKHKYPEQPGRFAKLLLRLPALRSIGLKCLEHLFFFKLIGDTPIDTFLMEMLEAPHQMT
T1 sequence (Q96RI1 whole entry partner): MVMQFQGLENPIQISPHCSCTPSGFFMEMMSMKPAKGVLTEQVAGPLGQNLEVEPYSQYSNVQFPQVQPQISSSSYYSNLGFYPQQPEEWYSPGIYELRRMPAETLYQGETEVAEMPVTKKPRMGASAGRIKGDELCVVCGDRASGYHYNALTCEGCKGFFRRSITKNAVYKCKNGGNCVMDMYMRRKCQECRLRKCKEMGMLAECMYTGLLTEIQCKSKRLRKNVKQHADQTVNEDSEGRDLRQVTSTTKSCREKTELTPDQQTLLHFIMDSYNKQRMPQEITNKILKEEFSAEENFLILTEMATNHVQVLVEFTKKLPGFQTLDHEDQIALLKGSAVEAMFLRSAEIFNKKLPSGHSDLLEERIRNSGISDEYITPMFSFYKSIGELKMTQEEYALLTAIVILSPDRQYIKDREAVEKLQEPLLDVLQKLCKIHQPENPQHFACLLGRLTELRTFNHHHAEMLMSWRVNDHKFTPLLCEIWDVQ
From the text: For PPARy: CV-1 cells were transfected with 3x(rAOX/DR1)-tk-Luc reporter gene and an expression vector for PPARy. For FXR:CV-1 cells were transfected with 3x(IBABP/IRI)-tk-Luc reporter gene and vectors for FXR and RXRα. For LXR:CV-1 cells were transfected with 3x(PLTP/LXRE)-tk-Luc reporter gene with vectors for LXRα or LXRβ. For Nurr1: COS7 cells were transfected with 3xNBRE-tk-luc reporter gene and full length Nurr-1 with or without full-length RXRα plasmid. […] Luciferase data were normalized to co-transfected β-gal activity. Luciferase activity was expressed as percent of maximal activity obtained using specific agonists. Rosiglitazone (PPARy), GW4064 (FXR), T0901317 (LXR).

[1] = test system: experimental autoimmune encephalomyelitis (EAE) in C57BL/6 (B6) mice; assay: EAE in C57BL/6 (B6) mice, MOG peptide induced; assay type: in vivo; details: 50 µg i.p. every other day from day 7
Description: Mice were also given 200 ng of pertussis toxin in PBS administered by inter-peritoneal (i.p.) injection on the same day as MOG emulsion injection (day 0) and 2 days later (day 2). […] Mice were scored using the following scale: 0 - Mice have no disease, 1 -Mice have distal limp tail or rear leg weakness (paresis), 1.5 - Mice have distal limp tail and rear leg weakness, 2 - Mice have complete limp tail and rear leg weakness, 2.5 - Mice have complete limp tail and weakness in both rear legs, 3 - Mice have complete limp tail and paralysis in both rear legs, 3.5 - Mice have complete limp tail, paralysis in both rear legs, and forelimb weakness. Mice receiving a score of 3.5 were immediately euthanized.

[2] = test system: CNS infiltrating leukocytes in C57BL/6 (B6) mice; assay: CNS infiltrating cells in EAE B6 mice (flow cytometry, day 20); assay type: in vivo; details: day 20 after immunization
Description: To determine whether a RXR agonist can reduce central nervous system (CNS) infiltrating cells, C57BL/6 (B6) mice were treated as described in Example 6. On day 20 after immunization, mice were sacrificed and perfused with phosphate buffered saline (PBS). Brain and spinal cord tissue was isolated, digested with DNase and LIBERASE DL® (Roche Diagnostics, Indianapolis, IN) for 30 minutes, and homogenized through 70 micron nylon mesh filters. Resulting cells were placed over a Percoll gradient to remove myelin. The remaining cells (microglia and CNS infiltrating cells) were counted, stained for molecules of interest, and run on a flow cytometer. Based on the frequencies obtained by FACS of these cell populations, total cell numbers of CNS infiltrating leukocytes expressing CD45, including CD4^+ T cells and CD11c^+ CD11b^+ myeloid dendritic cells (DC), were calculated.

[3] = test system: demyelination in C57BL/6J mice; assay: Cuprizone/rapamycin (CR) chronic 12-week mouse model of toxic demyelination; assay type: in vivo; details: 12 weeks CR; for # of Myelinated Axons per CC unit (PPD staining, corpus callosum) / % Area of Myelin Cortex (PLP staining) / % Area of Myelin Hippocampus (PLP staining): then 10 mg/kg/d PO daily for 6 weeks, with or without 20 ng/g thyroxine SC
Description: Mice are fed a cuprizone-containing diet and injected with rapamycin daily (CR regimen) for 12 weeks to induce demyelination. One group of animals is sacrificed at 12 weeks to evaluate demyelination. […] At the end of the study, all mice are sacrificed and one or more of the following parameters are determined: (1) PPD (p-phenylenediamine) staining to visualize and quantify myelinated axons in corpus callosum to assess demyelination and remyelination in white matter; (2) myelin proteolipid protein (PLP) immunostaining to visualize and quantify myelin in hippocampus to assess demyelination and remyelination in grey matter (hippocampus); (3) PLP immunostaining to visualize and quantify myelin in cortex to assess demyelination and remyelination in grey matter (cortex); (4) PDGFRα immunostaining to visualize and quantify OPCs in corpus callosum; (5) GSTpi immunostaining to visualize and quantify oligodendrocytes in corpus callosum; (6) Iba1 (ionized calcium-binding adapter molecule 1) and/or Mac-2 (galectin-3) immunostaining to visualize and quantify total and activated microglia in corpus callosum; (7) GFAP (glial fibrillary acidic protein) immunostaining to visualize and quantify astrocytes in corpus callosum To assess astroglial activation; and (8) 3D-electron microscopy in corpus callosum to assess ratio of myelinated and non-myelinated axons, internodal length, G-ratio, mitochondrial changes, etc.
The animals (8 week-old male C57BL/6J mice) are subjected to cuprizone diet plus rapamycin injections (CR) for 12 weeks to induce demyelination in white matter (CC, corpus callosum). After 12 weeks, CR is discontinued and subsets of animals are treated daily for 6 weeks with one of the following treatment regimens:
All animals are sacrificed after 12 weeks of CR (Group 7) or after further 6 weeks of treatment (Groups 1-6) to evaluate myelin in white matter (corpus callosum) and gray matter (hippocampus and cortex). In addition, the size of myelinated axons are quantified and the large myelinated axons are further assessed by 3D-electron microscopy (3D-EM).
A total of 92 mice are included in the study. Eight week-old male C57BL/6J mice are placed on a rodent chow (Harlan) containing 0.3% cuprizone for 12 weeks. These mice are also injected with rapamycin (approximately 10 mg/kg body weight at the volume of 0.1 ml, IP) daily for 12 weeks. Eight mice are maintained on a normal diet. The weight of the animals is monitored on a weekly-basis.
The drug is reconstituted in vehicle (DMSO/PBS/Tween) and fresh drug is made up once a week and administered orally once daily. […] Similarly, subgroups (n=12) of CR treated mice are treated with oral IRX4204EE and subcutaneous thyroxine vehicle (Group 5) or oral IRX4204EE and subcutaneous thyroxine (Group 6) at the indicated doses.
Epon-PPD stained sections of corpus callosum are evaluated in bright field at 10X, 20X and 63X (oil objective). A total of 4 images (63X) per animal are collected in the region of interest (ROI), which is a specific region between the rostral corpus callosum and the junction of the fornix. The images outside the ROI are not scored. The images are then evaluated using NIH ImageJ (aka. Fiji) to identify and count myelinated axons in the region of interest. The numbers of PPD-stained myelinated axons in all of the counting boxes for each image are counted. Using the polygon selection tool, the margins of the corpus callosum in each slice are identified and ImageJ is then used to calculate the total area of the CC in that slice. The total number of myelinated axons in a specific area of the corpus callosum is then calculated by dividing the total area of the CC by the total area of the counting boxes and multiplying by the combined number of myelinated axons that are counted in all of the counting boxes for each image. […]

Treg cells = assay: Treg cell differentiation in in vitro cell culture; assay type: cell-based
Th17 cells = assay: Th17 cell differentiation / IL-17 production in vitro; assay type: cell-based

SMILES	activation of FXR/RXR heterodimer (FXR/RXR)	symptoms of EAE (disease severity score) [1]	infiltration of CD4+ cells into the CNS [2]	infiltration of CD11c+ CD11b+ cells (myeloid DC) into the CNS [2]	# of Myelinated Axons per CC unit (PPD staining, corpus callosum) [3]	% Area of Myelin Cortex (PLP staining) [3] [%]	% Area of Myelin Hippocampus (PLP staining) [3] [%]	increase in myelin volume compared to vehicles control ([3]; then 6 weeks treatment)	remyelination and neuroprotection activity relative to IRX4204 groups ([3]; then 6 weeks treatment)	promoting the differentiation of Treg cells, relative to parent form (Treg cells; in vitro cell culture)	inhibiting the differentiation of Th17 cells, relative to parent form (Th17 cells; in vitro cell culture)	average diameter of myelinated axons ([3]; then 6 weeks treatment)	formation of Treg cells (Treg cells; 1 nM)	production of IL-17 (Th17 cells; 1 nM)
CCOC(=O)/C=C(C)/C=C/[C@@H]1C[C@]1(C)c1ccc2c(c1)C(C)(C)CCC2(C)C [IRX4204EE, 3,7-dimethyl-6(S),7(S)-methano,7-[1,1,4,4-tetramethyl-1,2,3,4-tetrahydronaphth-7-yl]2(E),4(E) heptadienoic ethyl ester]	very little activity	more effective than IRX4204	even greater reduction	even greater reduction	4300	85	68	approximately 25%	greater remyelination and neuroprotection activity than the corresponding IRX4204 treated groups	less active than its parent form	less active than its parent form			
CC(/C=C/[C@@H]1C[C@]1(C)c1ccc2c(c1)C(C)(C)CCC2(C)C)=C\C(=O)O [IRX4204, 3,7-dimethyl-6(S),7(S)-methano,7-[1,1,4,4-tetramethyl-1,2,3,4-tetrahydronaphth-7-yl]2(E),4(E) heptadienoic acid]	not to transactivate; also recorded: does not activate	significantly reduces the symptoms of EAE	significant reduction	significant reduction	1570	48	38	approximately 15%				approximately 0.9 µm	substantially enhances the formation of Treg cells	profoundly inhibits production of IL-17
